Results from patent EP0166355A2, “Substituted aminophenyl compounds and acylaminophenyl compounds and pharmaceutical compositions containing them” (Merck & Co., Inc., priority 1984, dated 1986).
Like-named read-outs stand apart in the source and are kept apart here. Peptide text beside a SMILES is read from it. * marks the point of attachment. X1 = O=C(c1ccccc1)c1ccccc1N*; Cbz = O=C(OCc1ccccc1)*

Molecular target: T1, CCK receptor (Rattus norvegicus, UniProt P30551)
T1 construct: The whole pancreas was dissected free of fat tissue and was homogenized; from tissue; host or cells: rat whole pancreas membrane homogenate
T1 sequence (P30551 1-444): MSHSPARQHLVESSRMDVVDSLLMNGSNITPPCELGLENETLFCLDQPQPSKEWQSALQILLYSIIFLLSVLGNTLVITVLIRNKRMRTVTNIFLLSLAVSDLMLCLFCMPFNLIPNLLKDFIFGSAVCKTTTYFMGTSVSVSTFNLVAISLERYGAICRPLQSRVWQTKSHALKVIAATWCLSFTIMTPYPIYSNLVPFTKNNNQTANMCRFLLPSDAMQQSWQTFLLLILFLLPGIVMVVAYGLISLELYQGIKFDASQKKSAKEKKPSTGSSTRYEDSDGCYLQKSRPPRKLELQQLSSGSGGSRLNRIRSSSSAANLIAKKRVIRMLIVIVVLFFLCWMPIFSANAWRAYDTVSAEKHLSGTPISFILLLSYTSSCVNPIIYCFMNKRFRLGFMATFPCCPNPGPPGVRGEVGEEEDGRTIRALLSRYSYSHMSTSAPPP
Test: CCK Receptor Binding (Pancreas), 125I-CCK-33
Set-up: species or system rats
Protocol: 1. CCK Receptor Binding (Pancreas)
CCK-33 was radiolabeled with ^125 I-Bolton Hunter reagent (2000 Ci/mmole) as described by Sankara et al. (J. Biol. Chem. 254: 9349-9351, 1979). Receptor binding was performed according to Innis and Snyder (Proc. Natl. Acad. Sci. 77: 6917-6921, 1980) with the minor modification of adding the additional protease inhibitors, phenylmethane sulfonyl fluoride and o-phenanthroline. The latter two compounds have no effect on the ^125I-CCK receptor binding assay.
Male Sprague-Dawley rats (200-350g) were sacrificed by decapitation. The whole pancreas was dissected free of fat tissue and was homogenized in 20 volumes of ice-cold 50 mM, Tris HC1 (pH 7.7 at 25°C) with a Brinkmann Polytron PT 10. The homogenates were centrifuged at 48,000 g for 10 min. Pellets were resuspended in Tris Buffer, centrifuged as above and resuspended in 200 volumes of binding assay buffer (50 mM Tris HC1, pH 7.7 at 25°C, 5 mM dithiothrietol, 0.1 mM bacitracin, 1.2 mM phenylmethane sulfonyl fluoride and 0.5 mM o-phenanthroline). For the binding assay, 25 µl of buffer (for total binding) or unlabeled CCK-8 sulfate to give a final concentration of lµM (for nonspecific binding) or the compounds of Formula I (for determination inhibition of 125I-CCK binding) and 25 ul of ^125 I-CCK-33 (30,000-40,000 cpm) were added to 450 µl of the membrane suspensions in microfuge tubes. All assays were run in duplicate or triplicate. The reaction mixtures were incubated at 37°C for 30 minutes and centrifuged in a Beckman Microfuge (4 minutes) immediately after adding 1 ml of ice-cold incubation buffer. The supernatant was aspirated and discarded, pellets were counted with a Beckman gamma 5000. For Scatchard analysis (Ann. N.Y. Acad. Sci. 51: 660, 1949), ^125I-CCK-33 was progressively diluted with increasing concentrations of CCK-33.

[1] = inhibition of 125I-CCK-33 binding, rat pancreas membranes, 37°C, 30 minutes; read-out: IC50(µM) ^125I-CCK Pancreas

Structure (SMILES)	IC50 [1] [µM]	IC50 (read-out: IC50(µM) ^125I-CCK Pancreas; inhibition of 125I-CCK-33 binding, rat pancreas membranes, 37°C, 30 minutes) [µM]
O=C(NC(Cc1cccs1)C(=O)Nc1ccccc1C(=O)c1ccccc1F)c1ccsc1 (racemic) [Example 12, 2-N-(N^a-3-Thienoyl-DL-B-(2-thienyl)alanyl)amino 2'-fluorobenzophenone]	1.3	–
CC(C)(C)OC(=O)N[C@@H](Cc1c[nH]c2ccccc12)C(=O)Nc1ccc(Cl)cc1C(=O)c1ccccc1 [Example 2, 2-N-(N-a-Boc-L-tryptophanyl)amino-5-chlorobenzo phenone]	0.74	–
CC(C)(C)OC(=O)N[C@@H](Cc1c[nH]c2ccccc12)C(=O)Nc1ccccc1C(=O)c1ccccc1F [Example 3, 2-N-(N^a-Boc-L-tryptophanyl)amino-2'-fluorobenzo phenone]	3.7	–
CSCC[C@H](NC(=O)[C@H](Cc1ccc(O)cc1)NC(=O)OCc1ccccc1)C(=O)NCC(=O)N[C@@H](Cc1c[nH]c2ccccc12)C(=O)Nc1ccccc1C(=O)c1ccccc1 [Example 20, 2-N-(N^a-Benzyloxycarbonyl-L-tryosyl-L-methionyl-glycyl-L-tryptophanyl)aminobenzophenone] (Cbz-YMGW-X1)	–	2
O=C(N[C@@H](CC1CNc2ccccc21)C(=O)Nc1ccc(Cl)cc1C(=O)c1ccccc1)c1ccsc1 (single isomer, unassigned) [Example 22B]	2.2	–
O=C(N[C@@H](Cc1c[nH]c2ccccc12)C(=O)Nc1ccccc1C(=O)c1ccccc1)c1ccc(Cl)cc1 [Example 15, 2-N-(N^α-p-Chlorobenzoyl-L-tryptophanyl)aminobenzophenone]	0.9	–
CC(C)(C)OC(=O)N[C@@H](Cc1c[nH]c2ccccc12)C(=O)Nc1ccccc1C(=O)c1ccccc1 [Example 5, 2-N-(N^a-Boc-L-tryptophanyl)aminobenzophenone]	4.8	–
O=C(CCc1c[nH]c2ccccc12)Nc1ccc(Cl)cc1C(=O)c1ccccc1 [Example 13, 2-N-[3-(3'indolyl)propanoyl]amino-5-chlorobenzophenone]	10	–
CC(=O)N[C@@H](Cc1c[nH]c2ccccc12)C(=O)Nc1ccccc1C(=O)c1ccccc1 [Example 16, 2-N-(N^a-acetyl-L-tryptophanyl)aminobenzophenone]	1	–
CC(C)(C)OC(=O)NCC(=O)N[C@@H](Cc1c[nH]c2ccccc12)C(=O)Nc1ccccc1C(=O)c1ccccc1 [Example 18, 2-N-(N^a-Boc-glycyl-L-tryptophanyl)aminobenzophenone]	8	–
O=C(N[C@@H](Cc1c[nH]c2ccccc12)C(=O)Nc1ccc(Cl)cc1C(=O)c1ccccc1)c1ccsc1 [Example 21, 2-N-(N^a-3-thienoyl-L-tryptophanyl)amino-5-chlorobenzophenone]	0.4	–
O=C(N[C@@H](Cc1c[nH]c2ccccc12)C(=O)Nc1ccccc1C(=O)c1ccccc1)c1ccsc1 [Example 17, 2-N-(N^a-3-thienoyl-L-tryptophanyl)aminobenzophenone]	0.19	–
CSCC[C@H](NC(=O)OC(C)(C)C)C(=O)NCC(=O)N[C@@H](Cc1c[nH]c2ccccc12)C(=O)Nc1ccccc1C(=O)c1ccccc1 [Example 19, 2-N-(N^a-Boc-L-methionyl-glycyl-L-tryptophanyl)aminobenzophenone]	2.4	–
